In ChEMBL document CHEMBL1759950, “Design, synthesis and cytotoxic activities of novel β-amino alcohol derivatives” (Bioorg Med Chem Lett, 2011):

Key:
Type in all cases: functional, cell-based
HL-60 = assay: Cytotoxicity against human HL60 cells by MTT assay
SMMC-7721 = assay: Cytotoxicity against human SMMC7721 cells by MTT assay
A549 = assay: Cytotoxicity against human A549 cells by MTT assay
MCF7 = assay: Cytotoxicity against human MCF7 cells by MTT assay
SW480 = assay: Cytotoxicity against human SW480 cells by MTT assay

| Structure (SMILES) | IC50 (HL-60) | IC50 (SMMC-7721) | IC50 (A549) | IC50 (MCF7) | IC50 (SW480) |
| --- | --- | --- | --- | --- | --- |
| OC[C@H](Cc1c[nH]c2ccccc12)NCc1c2ccccc2cc2ccccc12 | > 40 µM | > 40 µM | > 40 µM | > 40 µM | > 40 µM |
| CC(C)(O)[C@H](Cc1c[nH]c2ccccc12)NCc1c2ccccc2cc2ccccc12 | 9.55 µM | 13.4 µM | 11 µM | 12.5 µM | 11.7 µM |
| CCC(O)(CC)[C@H](Cc1c[nH]c2ccccc12)NCc1c2ccccc2cc2ccccc12 | 12.2 µM | 13 µM | 11.6 µM | 24.3 µM | > 40 µM |
| CCCC(O)(CCC)[C@H](Cc1c[nH]c2ccccc12)NCc1c2ccccc2cc2ccccc12 | 13.2 µM | 17.3 µM | 10.9 µM | 23.9 µM | > 40 µM |
| CCCCC(O)(CCCC)[C@H](Cc1c[nH]c2ccccc12)NCc1c2ccccc2cc2ccccc12 | > 40 µM | > 40 µM | > 40 µM | > 40 µM | > 40 µM |
| Cn1cc(C[C@@H](CO)NCc2c3ccccc3cc3ccccc23)c2ccccc21 | 4.48 µM | 15 µM | 16.5 µM | 16.6 µM | 13.5 µM |
| Cn1cc(C[C@H](NCc2c3ccccc3cc3ccccc23)C(C)(C)O)c2ccccc21 | 4.78 µM | 15.5 µM | 11.8 µM | 15.2 µM | 15.1 µM |
| CCC(O)(CC)[C@H](Cc1cn(C)c2ccccc12)NCc1c2ccccc2cc2ccccc12 | > 40 µM | > 40 µM | > 40 µM | > 40 µM | > 40 µM |
| CCCC(O)(CCC)[C@H](Cc1cn(C)c2ccccc12)NCc1c2ccccc2cc2ccccc12 | > 40 µM | > 40 µM | > 40 µM | > 40 µM | > 40 µM |
| CCCCC(O)(CCCC)[C@H](Cc1cn(C)c2ccccc12)NCc1c2ccccc2cc2ccccc12 | > 40 µM | > 40 µM | > 40 µM | > 40 µM | > 40 µM |
| CCn1cc(C[C@@H](CO)NCc2c3ccccc3cc3ccccc23)c2ccccc21 | 6.18 µM | 17.1 µM | 16.5 µM | 14.9 µM | 17.4 µM |
| CCn1cc(C[C@H](NCc2c3ccccc3cc3ccccc23)C(C)(C)O)c2ccccc21 | 5.44 µM | 13.6 µM | 15 µM | 13.9 µM | 17.6 µM |
| CCn1cc(C[C@H](NCc2c3ccccc3cc3ccccc23)C(O)(CC)CC)c2ccccc21 | > 40 µM | > 40 µM | > 40 µM | > 40 µM | > 40 µM |
| CCCC(O)(CCC)[C@H](Cc1cn(CC)c2ccccc12)NCc1c2ccccc2cc2ccccc12 | > 40 µM | > 40 µM | > 40 µM | > 40 µM | > 40 µM |
| CCCCC(O)(CCCC)[C@H](Cc1cn(CC)c2ccccc12)NCc1c2ccccc2cc2ccccc12 | > 40 µM | > 40 µM | > 40 µM | > 40 µM | > 40 µM |
| CC(=O)N(Cc1c2ccccc2cc2ccccc12)[C@H](CO)Cc1c[nH]c2ccccc12 | 3.64 µM | 14.1 µM | 15.2 µM | 16.1 µM | 17.3 µM |
| CC(=O)N(Cc1c2ccccc2cc2ccccc12)[C@@H](Cc1c[nH]c2ccccc12)C(C)(C)O | 6.49 µM | 12 µM | 14.5 µM | 15.6 µM | 17.2 µM |
| O=C(c1ccccc1)N(Cc1c2ccccc2cc2ccccc12)[C@H](CO)Cc1c[nH]c2ccccc12 | 7.03 µM | 20.7 µM | 13.2 µM | 17.4 µM | 30.7 µM |
| CC(C)(O)[C@H](Cc1c[nH]c2ccccc12)N(Cc1c2ccccc2cc2ccccc12)C(=O)c1ccccc1 | > 40 µM | > 40 µM | > 40 µM | > 40 µM | > 40 µM |
